Data published in patent US20150126467A1, “USE OF ALGINATE OLIGOMERS TO ENHANCE THE EFFECTS OF ANTIFUNGAL AGENTS” (AlgiIPharma AS, priority 2011, published 2015).
In brackets after ≈: the same amount, converted by molar mass. Like-named read-outs stand apart in the source and are kept apart here.

What was measured:
Type in all cases: cell-based
[1] = tested on: Aspergillus niger CCUG 18919; assay: Robotic MIC assay, Aspergillus (Example 4); conditions: Aspergillus niger, CCUG18919, 48 h, Mueller-Hinton broth, read-out: Minimum Inhibitory Concentration (MIC)
Protocol: (§1) Aspergillus sp. was grown at 30° C. for 96 h on YM-agar. Spores and aerial mycelium was cut out from the agar, suspended in 1 ml YM-broth and dispersed with glass beads (1 mm) in a mini bead beater for 2 min. Glycerol was added to the suspension to 10% and frozen at −80° C.
(§2) Each batch of frozen stock culture was then characterized in separate growth experiments using Mueller-Hinton broth to determine the minimum amount of inoculum giving satisfactory growth after 48 h under the conditions relevant for the MIC assay. This inoculation procedure is used in order to reduce day to day variation in bioassays.
(§3) Robotic minimum inhibitory concentration (MIC) assay was performed as follows. OligoG CF-5/20 was dissolved in medium (Mueller-Hinton broth) to 1.25 times of the desired assay concentrations (2, 6 and 10%). […].
(§4) Two-fold serial dilutions of antifungal agents were made in medium with different concentrations of OligoG CF-5/20, and the solutions were placed in four parallel wells in Nunc 384-well micro plates (30 μl per well in Nunc 242757 microplates). A group of 8 wells with no addition of antifungal agents for each OligoG CF-5/20 concentration was included on each micro plate as growth reference. Each well in the 384-well assay plates was added 7.5 μl of the MH medium inoculated with frozen stock culture of the relevant strains.
(§5) The microplates were placed in plastic bags and incubated without shaking at 34° C. The optical density at 600 nm in the microwells was measured after approximately 24 and 48 hours of incubation. […]

[2] = tested on: Aspergillus fumigatus CCUG 17460; assay: Robotic MIC assay, Aspergillus (Example 4); conditions: Aspergillus fumigatus, CCUG17460, 48 h, Mueller-Hinton broth, read-out: Minimum Inhibitory Concentration (MIC)
Protocol: as §1, §2, §3, §4, §5

[3] = tested on: Aspergillus flavus CCUG 28296; assay: Robotic MIC assay, Aspergillus (Example 4); conditions: Aspergillus flavus, CCUG23451 / CCUG28296, 48 h, Mueller-Hinton broth, read-out: Minimum Inhibitory Concentration (MIC)
Protocol: as §1, §2, §3, §4, §5

[4] = tested on: Cryptococcus neoformans CCUG 23451; assay: Robotic MIC assay, Cryptococcus neoformans (Example 6); conditions: for MIC: Cryptococcus neoformans, read-out: Minimum Inhibitory Concentration (MIC); for effect on MIC when OligoG is added to the medium: media: RPMI with 2% glucose
Protocol: Cryptococcus sp. was grown at 30° C. for 96 h on YM-agar. Spores and aerial mycelium was cut out from the agar, suspended in 1 ml YM-broth and dispersed with glass beads (1 mm) in a mini bead beater for 2 min. The suspension was added glycerol to 10% and frozen at −80° C. Each batch of frozen stock culture was then characterized in separate growth experiments using Mueller-Hinton and RPMI to determine the minimum amount of inoculum giving satisfactory growth after 48 h under the conditions relevant for the MIC assay. This inoculum procedure is used in order to reduce day to day variation in bioassays.
Robotic minimum inhibitory concentration (MIC) assay was performed as follows. OligoG CF-5/20 was dissolved in medium (Mueller-Hinton, RPMI with 2% glucose, Sabouraud or YM) to 1.25 times of the desired assay concentrations (2, 6 and 10%). […].
as §4, with “the” for “the MH”, “innoculated” for “inoculated”
The microplates were placed in plastic bags and incubated without shaking at 34° C. The optical density at 600 nm in the microwells was measured after certain time points from 24 h to 96 h of incubation. […]

[5] = A. niger CCUG 18919, 10% OligoG
[6] = A. fumigatus CCUG 17460, 0% OligoG
[7] = A. fumigatus CCUG 17460, 2% OligoG
[8] = A. fumigatus CCUG 17460, 6% OligoG
[9] = A. fumigatus CCUG 17460, 10% OligoG
[10] = A. flavus CCUG 23451, 0% OligoG
[11] = A. flavus CCUG 23451, 2% OligoG
[12] = A. flavus CCUG 23451, 6% OligoG
[13] = A. flavus CCUG 23451, 10% OligoG
[14] = CCUG23451, 72 h, RPMI 2% GLU, 0% OligoG, 72 hours
[15] = CCUG23451, 72 h, RPMI 2% GLU, 2% OligoG, 72 hours
[16] = CCUG23451, 72 h, RPMI 2% GLU, 6% OligoG, 72 hours
[17] = CCUG23451, 72 h, Sabouraud, 0% OligoG, 72 hours
[18] = CCUG23451, 72 h, Sabouraud, 2% OligoG, 72 hours
[19] = CCUG23451, 72 h, Sabouraud, 6% OligoG, 72 hours
[20] = CCUG23451, 72 h, YM, 0% OligoG, 72 hours
[21] = CCUG23451, 72 h, YM, 2% OligoG, 72 hours
[22] = CCUG23451, 96 h, MH, 0% OligoG, 96 hours
[23] = CCUG23451, 96 h, MH, 2% OligoG, 96 hours
[24] = CCUG23451, 96 h, RPMI 2% GLU, 0% OligoG, 96 hours
[25] = CCUG23451, 96 h, RPMI 2% GLU, 2% OligoG, 96 hours
[26] = CCUG23451, 96 h, RPMI 2% GLU, 6% OligoG, 96 hours
[27] = CCUG23451, 96 h, RPMI 2% GLU, 10% OligoG, 96 hours
[28] = CCUG23451, 96 h, Sabouraud, 0% OligoG, 96 hours
[29] = CCUG23451, 96 h, Sabouraud, 2% OligoG, 96 hours
[30] = CCUG23451, 96 h, Sabouraud, 6% OligoG, 96 hours
[31] = CCUG23451, 96 h, YM, 0% OligoG, 96 hours
[32] = CCUG23451, 96 h, YM, 2% OligoG, 96 hours

MIC ([1]; A. niger CCUG 18919, 0% OligoG) | MIC ([1]; A. niger CCUG 18919, 2% OligoG) | MIC ([1]; A. niger CCUG 18919, 6% OligoG) | MIC [1, 5] | MIC [2, 6] | MIC [2, 7] | MIC [2, 8] | MIC [2, 9] | MIC [3, 10] | MIC [3, 11] | MIC [3, 12] | MIC [3, 13] | MIC [4, 14] | MIC [4, 15] | MIC [4, 16] | MIC [4, 17] | MIC [4, 18] | MIC [4, 19] | MIC [4, 20] | MIC [4, 21] | SMILES | also measured
> 128 µg/mL | > 128 µg/mL | > 128 µg/mL | 128 µg/mL (≈ 418 µM) | > 128 µg/mL | > 128 µg/mL | 128 µg/mL (≈ 418 µM) | 128 µg/mL (≈ 418 µM) | 64 µg/mL (≈ 209 µM) | 64 µg/mL (≈ 209 µM) | 32 µg/mL (≈ 104 µM) | 32 µg/mL (≈ 104 µM) | 2 µg/mL (≈ 6.53 µM) | 1 µg/mL (≈ 3.27 µM) | 0.5 µg/mL (≈ 1.63 µM) | 1 µg/mL (≈ 3.27 µM) | 0.5 µg/mL (≈ 1.63 µM) | 0.5 µg/mL (≈ 1.63 µM) | 1 µg/mL (≈ 3.27 µM) | 0.5 µg/mL (≈ 1.63 µM) | OC(Cn1cncn1)(Cn1cncn1)c1ccc(F)cc1F [Fluconazole, fluconazole] | MIC [4, 22]: 2 µg/mL (≈ 6.53 µM); MIC [4, 23]: 0.5 µg/mL (≈ 1.63 µM); MIC [4, 24]: 2 µg/mL (≈ 6.53 µM); MIC [4, 25]: 1 µg/mL (≈ 3.27 µM); MIC [4, 26]: 1 µg/mL (≈ 3.27 µM); MIC [4, 27]: 1 µg/mL (≈ 3.27 µM); MIC [4, 28]: 1 µg/mL (≈ 3.27 µM); MIC [4, 29]: 0.5 µg/mL (≈ 1.63 µM); MIC [4, 30]: 0.5 µg/mL (≈ 1.63 µM); MIC [4, 31]: 1 µg/mL (≈ 3.27 µM); MIC [4, 32]: 1 µg/mL (≈ 3.27 µM); effect on MIC when OligoG is added to the medium ([4]; MH, Sabouraud, YM): reduction in MIC in all media tested
1 µg/mL (≈ 2.4 µM) | 0.5 µg/mL (≈ 1.2 µM) | 0.25 µg/mL (≈ 0.601 µM) | 0.25 µg/mL (≈ 0.601 µM) | 4 µg/mL (≈ 9.61 µM) | 2 µg/mL (≈ 4.81 µM) | 2 µg/mL (≈ 4.81 µM) | 2 µg/mL (≈ 4.81 µM) | 1 µg/mL (≈ 2.4 µM) | 0.25 µg/mL (≈ 0.601 µM) | 0.25 µg/mL (≈ 0.601 µM) | 0.25 µg/mL (≈ 0.601 µM) | 4 µg/mL (≈ 9.61 µM) | 2 µg/mL (≈ 4.81 µM) | 0.5 µg/mL (≈ 1.2 µM) | < 0.0156 µg/mL | 0.0625 µg/mL (≈ 0.15 µM) | 0.00781 µg/mL (≈ 0.0188 µM) | 0.5 µg/mL (≈ 1.2 µM) | 0.5 µg/mL (≈ 1.2 µM) | Clc1ccc(COC(Cn2ccnc2)c2ccc(Cl)cc2Cl)c(Cl)c1 (centres unmarked) [Miconazole, miconazole] | MIC [4, 22]: 1 µg/mL (≈ 2.4 µM); MIC [4, 23]: 0.125 µg/mL (≈ 0.3 µM); MIC [4, 24]: 4 µg/mL (≈ 9.61 µM); MIC [4, 25]: 2 µg/mL (≈ 4.81 µM); MIC [4, 26]: 1 µg/mL (≈ 2.4 µM); MIC [4, 28]: 0.0625 µg/mL (≈ 0.15 µM); MIC [4, 29]: 0.25 µg/mL (≈ 0.601 µM); MIC [4, 30]: 0.5 µg/mL (≈ 1.2 µM); MIC [4, 31]: 0.5 µg/mL (≈ 1.2 µM); MIC [4, 32]: 1 µg/mL (≈ 2.4 µM); effect on MIC when OligoG is added to the medium ([4]; MH, Sabouraud, YM): reduction in MIC in RPMI with glucose and in MH medium
0.5 µg/mL (≈ 1.72 µM) | 0.25 µg/mL (≈ 0.858 µM) | 0.0625 µg/mL (≈ 0.214 µM) | 0.125 µg/mL (≈ 0.429 µM) | 4 µg/mL (≈ 13.7 µM) | 4 µg/mL (≈ 13.7 µM) | 4 µg/mL (≈ 13.7 µM) | 2 µg/mL (≈ 6.86 µM) | 0.125 µg/mL (≈ 0.429 µM) | 0.0625 µg/mL (≈ 0.214 µM) | < 0.0312 µg/mL | < 0.0312 µg/mL | – | – | – | – | – | – | – | – | CN(C/C=C/C#CC(C)(C)C)Cc1cccc2ccccc12 [Terbinafine, terbinafine] | –

SMILES | MIC ([1]; A. niger CCUG 18919, 0% OligoG) | MIC ([1]; A. niger CCUG 18919, 2% OligoG) | MIC ([1]; A. niger CCUG 18919, 6% OligoG) | MIC [1, 5] | MIC [2, 6] | MIC [2, 7] | MIC [2, 8] | MIC [2, 9] | MIC [3, 10] | MIC [3, 11] | MIC [3, 12] | MIC [3, 13] | MIC [4, 14] | MIC [4, 15] | MIC [4, 16] | MIC [4, 17] | MIC [4, 18] | MIC [4, 19] | MIC [4, 20] | MIC [4, 21] | also measured
C[C@@H]1[C@H](O)[C@@H](C)/C=C/C=C/C=C/C=C/C=C/C=C/C=C/[C@H](O[C@@H]2O[C@H](C)[C@@H](O)[C@H](N)[C@@H]2O)C[C@@H]2O[C@](O)(C[C@@H](O)C[C@@H](O)[C@H](O)CC[C@@H](O)C[C@@H](O)CC(=O)O[C@H]1C)C[C@H](O)[C@H]2C(=O)O [Amphotericin B, amphotericin B] | 0.188 µg/mL (≈ 0.203 µM) | 0.188 µg/mL (≈ 0.203 µM) | 0.0938 µg/mL (≈ 0.101 µM) | 0.0469 µg/mL (≈ 0.0507 µM) | 0.75 µg/mL (≈ 0.812 µM) | 0.375 µg/mL (≈ 0.406 µM) | 0.375 µg/mL (≈ 0.406 µM) | 0.188 µg/mL (≈ 0.203 µM) | 0.75 µg/mL (≈ 0.812 µM) | 0.375 µg/mL (≈ 0.406 µM) | 0.375 µg/mL (≈ 0.406 µM) | 0.188 µg/mL (≈ 0.203 µM) | > 1.5 µg/mL | 1.5 µg/mL (≈ 1.62 µM) | 0.75 µg/mL (≈ 0.812 µM) | 0.188 µg/mL (≈ 0.203 µM) | 0.0938 µg/mL (≈ 0.101 µM) | 0.0117 µg/mL (≈ 0.0127 µM) | > 1.5 µg/mL | 1.5 µg/mL (≈ 1.62 µM) | MIC [4, 22]: 1.5 µg/mL (≈ 1.62 µM); MIC [4, 23]: 0.188 µg/mL (≈ 0.203 µM); MIC [4, 24]: > 1.5 µg/mL; MIC [4, 25]: > 1.5 µg/mL; MIC [4, 26]: 1.5 µg/mL (≈ 1.62 µM); MIC [4, 27]: 0.75 µg/mL (≈ 0.812 µM); MIC [4, 28]: 0.375 µg/mL (≈ 0.406 µM); MIC [4, 29]: 0.0938 µg/mL (≈ 0.101 µM); MIC [4, 30]: 0.0234 µg/mL (≈ 0.0253 µM); MIC [4, 31]: > 1.5 µg/mL; MIC [4, 32]: 1.5 µg/mL (≈ 1.62 µM); effect on MIC when OligoG is added to the medium ([4]; MH, Sabouraud, YM): reduction in MIC in all media tested
